Experimental data taken from patent US10392391B2 (Vertex Pharmaceuticals Incorporated, priority 2012, dated 2019).
Read-outs that look alike come from different tables or passages of the source.

Molecular target: ATR kinase (full-length ATR) (Homo sapiens (Human), UniProt Q13535)
Assay: ATR inhibition assay (radioactive-phosphate incorporation)
Type: biochemical
Method in brief: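 Radiometric 33P incorporation by 5 nM full-length ATR into 800 μM target peptide with 10 μM [γ-33P]ATP, in 50 mM Tris/HCl pH 7.5, 10 mM MgCl2, 1 mM DTT, 7% DMSO, 25° C. Compound pre-incubated 10 minutes; reaction stopped after 24 hours, captured on phosphocellulose. Ki(app) from non-linear regression of initial rates.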

[1] = Ki(app), 5 nM full-length ATR, 10 μM ATP, 25° C.

Sequence of ATR kinase (full-length ATR) (Q13535 whole entry): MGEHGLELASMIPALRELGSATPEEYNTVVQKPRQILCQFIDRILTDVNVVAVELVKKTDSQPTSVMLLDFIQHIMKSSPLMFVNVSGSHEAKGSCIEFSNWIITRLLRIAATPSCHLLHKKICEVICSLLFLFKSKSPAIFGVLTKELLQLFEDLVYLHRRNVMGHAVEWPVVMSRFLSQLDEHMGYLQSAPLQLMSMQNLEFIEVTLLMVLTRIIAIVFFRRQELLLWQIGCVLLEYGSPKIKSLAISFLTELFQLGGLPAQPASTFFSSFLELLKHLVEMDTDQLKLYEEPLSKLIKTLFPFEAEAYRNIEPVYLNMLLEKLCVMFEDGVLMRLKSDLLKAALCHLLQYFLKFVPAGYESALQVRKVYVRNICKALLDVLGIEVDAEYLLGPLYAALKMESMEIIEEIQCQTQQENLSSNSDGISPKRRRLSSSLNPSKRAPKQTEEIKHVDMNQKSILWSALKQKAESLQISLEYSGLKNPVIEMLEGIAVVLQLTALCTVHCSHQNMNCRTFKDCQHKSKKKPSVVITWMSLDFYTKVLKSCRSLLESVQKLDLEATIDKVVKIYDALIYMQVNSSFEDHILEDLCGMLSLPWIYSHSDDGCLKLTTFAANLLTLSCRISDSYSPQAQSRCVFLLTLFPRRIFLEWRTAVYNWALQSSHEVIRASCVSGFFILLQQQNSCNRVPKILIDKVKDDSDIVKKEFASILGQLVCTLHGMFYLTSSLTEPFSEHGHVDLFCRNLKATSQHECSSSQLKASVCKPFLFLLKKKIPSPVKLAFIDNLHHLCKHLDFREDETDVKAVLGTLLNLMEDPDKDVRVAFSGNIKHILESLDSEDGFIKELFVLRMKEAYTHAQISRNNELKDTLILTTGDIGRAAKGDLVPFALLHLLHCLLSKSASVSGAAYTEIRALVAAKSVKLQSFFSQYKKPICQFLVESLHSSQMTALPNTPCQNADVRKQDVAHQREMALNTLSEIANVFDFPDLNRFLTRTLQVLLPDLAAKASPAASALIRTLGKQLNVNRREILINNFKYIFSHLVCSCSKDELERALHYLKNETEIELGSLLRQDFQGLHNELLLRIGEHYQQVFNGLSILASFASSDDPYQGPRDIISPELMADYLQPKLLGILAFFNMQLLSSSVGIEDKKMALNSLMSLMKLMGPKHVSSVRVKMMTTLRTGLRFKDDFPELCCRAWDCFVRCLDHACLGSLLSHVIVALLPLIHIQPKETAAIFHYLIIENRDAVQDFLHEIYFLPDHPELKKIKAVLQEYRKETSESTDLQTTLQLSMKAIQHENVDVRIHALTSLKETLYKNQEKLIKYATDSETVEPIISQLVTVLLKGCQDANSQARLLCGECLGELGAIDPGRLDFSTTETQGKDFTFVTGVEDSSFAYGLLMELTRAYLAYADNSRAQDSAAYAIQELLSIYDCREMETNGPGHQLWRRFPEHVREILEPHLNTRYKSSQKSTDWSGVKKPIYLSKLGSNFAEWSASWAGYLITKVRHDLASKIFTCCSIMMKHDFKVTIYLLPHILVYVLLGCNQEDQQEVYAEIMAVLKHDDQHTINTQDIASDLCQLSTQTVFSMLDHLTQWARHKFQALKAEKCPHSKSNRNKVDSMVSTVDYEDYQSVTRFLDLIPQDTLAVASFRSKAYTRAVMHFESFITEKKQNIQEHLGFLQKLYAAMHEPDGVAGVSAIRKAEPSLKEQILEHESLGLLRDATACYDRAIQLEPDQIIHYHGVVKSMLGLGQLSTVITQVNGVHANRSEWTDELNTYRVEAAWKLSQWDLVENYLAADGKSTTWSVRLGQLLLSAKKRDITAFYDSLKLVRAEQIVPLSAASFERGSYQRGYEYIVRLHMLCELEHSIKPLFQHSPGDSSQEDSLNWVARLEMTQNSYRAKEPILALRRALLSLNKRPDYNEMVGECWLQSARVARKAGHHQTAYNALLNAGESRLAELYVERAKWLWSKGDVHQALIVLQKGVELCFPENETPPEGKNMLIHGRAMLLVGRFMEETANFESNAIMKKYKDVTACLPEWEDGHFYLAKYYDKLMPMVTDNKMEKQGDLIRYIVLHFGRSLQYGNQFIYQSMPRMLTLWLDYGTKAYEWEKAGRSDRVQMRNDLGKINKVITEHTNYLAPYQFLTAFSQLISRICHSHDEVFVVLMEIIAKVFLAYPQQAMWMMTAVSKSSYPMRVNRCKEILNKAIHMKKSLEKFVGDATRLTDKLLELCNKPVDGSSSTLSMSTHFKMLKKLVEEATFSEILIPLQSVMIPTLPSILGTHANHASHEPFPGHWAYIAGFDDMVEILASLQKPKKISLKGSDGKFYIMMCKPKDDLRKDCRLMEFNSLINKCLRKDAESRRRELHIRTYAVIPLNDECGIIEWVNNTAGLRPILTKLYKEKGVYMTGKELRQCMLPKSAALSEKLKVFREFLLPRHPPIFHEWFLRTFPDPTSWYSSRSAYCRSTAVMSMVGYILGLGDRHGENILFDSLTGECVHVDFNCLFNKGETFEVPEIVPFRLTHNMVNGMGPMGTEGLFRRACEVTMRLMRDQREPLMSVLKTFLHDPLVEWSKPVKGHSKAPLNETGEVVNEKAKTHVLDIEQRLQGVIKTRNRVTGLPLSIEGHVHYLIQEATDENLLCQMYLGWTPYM

| Ki [1] | Ki | Structure (SMILES) |
| --- | --- | --- |
| 10 to 1000 nM | – | CN1CCN(c2c(F)cncc2NC(=O)c2c(N)nn3cc(F)cnc23)CC1=O [I-N-212, 2-amino-6-fluoro-N-(5-fluoro-4-(4-methyl-3-oxopiperazin-1-yl)pyridin-3-yl)pyrazolo[1,5-a]pyrimidine-3-carboxamide] |
| 10 to 1000 nM | – | COc1ccc(-c2ccncc2NC(=O)c2c(N)nn3cc(F)cnc23)cn1 [I-C-27, 2-amino-6-fluoro-N-(6-methoxy-[3,4′-bipyridin]-3′-yl)pyrazolo[1,5-a]pyrimidine-3-carboxamide] |
| 10 to 1000 nM | – | Nc1nn2cc(F)cnc2c1C(=O)Nc1cnccc1-c1ccccc1 [I-C-5, 2-amino-6-fluoro-N-(4-phenylpyridin-3-yl)pyrazolo[1,5-a]pyrimidine-3-carboxamide] |
| 10 to 1000 nM | – | CC1(C)CCCN1c1ccncc1NC(=O)c1c(N)nn2cc(F)cnc12 [I-N-220, 2-amino-N-(4-(2,2-dimethylpyrrolidin-1-yl)pyridin-3-yl)-6-fluoropyrazolo[1,5-a]pyrimidine-3-carboxamide] |
| 10 to 1000 nM | – | CN1CCN(c2ccncc2NC(=O)c2c(N)nn3cc(F)cnc23)CC12CCOCC2 [I-N-133, 2-amino-6-fluoro-N-(4-(1-methyl-9-oxa-1,4-diazaspiro[5.5]undecan-4-yl)pyridin-3-yl)pyrazolo[1,5-a]pyrimidine-3-carboxamide] |

Further lines, the compound ahead of its results:

| Structure (SMILES) | Ki [1] | Ki |
| --- | --- | --- |
| CN1CCN(CC2CCN(c3c(F)cncc3NC(=O)c3c(N)nn4cc(F)cnc34)CC2)CC1=O [I-N-171, 2-amino-6-fluoro-N-(5-fluoro-4-(4-((4-methyl-3-oxopiperazin-1-yl)methyl)piperidin-1-yl)pyridin-3-yl)pyrazolo[1,5-a]pyrimidine-3-carboxamide] | 10 to 1000 nM | – |
| CN(C)C(=O)C1CCN(c2ccncc2NC(=O)c2c(N)nn3cc(F)cnc23)CC1 [I-G-2, 2-amino-N-(4-(4-(dimethylcarbamoyl)piperidin-1-yl)pyridin-3-yl)-6-fluoropyrazolo[1,5-a]pyrimidine-3-carboxamide] | 10 to 1000 nM | – |
| CN1CCN(C2CCN(c3c(F)cncc3NC(=O)c3c(N)nn4cc(F)cnc34)CC2)C(=O)C1 [I-N-151, 2-amino-6-fluoro-N-(5-fluoro-4-(4-(4-methyl-2-oxopiperazin-1-yl)piperidin-1-yl)pyridin-3-yl)pyrazolo[1,5-a]pyrimidine-3-carboxamide] | – | 1000 to 5000 nM |
| Nc1nn2cc(Cl)cnc2c1C(=O)Nc1cnccc1O[C@H]1CCNC1 [I-O-76, (S)-2-amino-6-chloro-N-(4-(pyrrolidin-3-yloxy)pyridin-3-yl)pyrazolo[1,5-a]pyrimidine-3-carboxamide] | 10 to 1000 nM | – |
| Nc1nn2cc(Cl)cnc2c1C(=O)Nc1cnccc1N1C2CCC1CC(O)C2 (centres unmarked) [I-N-42, 2-amino-6-chloro-N-(4-(3-hydroxy-8-azabicyclo[3.2.1]octan-8-yl)pyridin-3-yl)pyrazolo[1,5-a]pyrimidine-3-carboxamide] | 10 to 1000 nM | – |
| CS(=O)(=O)C1CCCN(c2ccncc2NC(=O)c2c(N)nn3cc(F)cnc23)C1 (centres unmarked) [I-N-221, 2-amino-6-fluoro-N-(4-(3-(methylsulfonyl)piperidin-1-yl)pyridin-3-yl)pyrazolo[1,5-a]pyrimidine-3-carboxamide] | 10 to 1000 nM | – |
| Nc1nn2cc(Cl)cnc2c1C(=O)Nc1cnccc1N1CCN2CCC[C@H]2C1 [I-N-71, (S)-2-amino-6-chloro-N-(4-(hexahydropyrrolo[1,2-a]pyrazin-2(1H)-yl)pyridin-3-yl)pyrazolo[1,5-a]pyrimidine-3-carboxamide] | 10 to 1000 nM | – |
| N#CCc1cnc2c(C(=O)Nc3cnccc3N3CCCCCC3)c(N)nn2c1 [I-N-79, 2-amino-N-(4-(azepan-1-yl)pyridin-3-yl)-6-(cyanomethyl)pyrazolo[1,5-a]pyrimidine-3-carboxamide] | 10 to 1000 nM | – |
| Nc1nn2cc(F)cnc2c1C(=O)Nc1cncc(F)c1N1CCC(C(=O)N2CC(F)C2)CC1 [I-G-74, 2-amino-6-fluoro-N-(5-fluoro-4-(4-(3-fluoroazetidine-1-carbonyl)piperidin-1-yl)pyridin-3-yl)pyrazolo[1,5-a]pyrimidine-3-carboxamide] | 10 to 1000 nM | – |
